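How tested: cells in 96-well plates exposed to compound for 48 hours at five concentrations. GI50 = concentration required for 50% inhibition of growth. Definition used: TGI = concentration required for complete inhibition of growth.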
Legend:
Test in all cases: DTP human tumour cell line panel, 48 h
786-0 renal = tested on: 786-0 renal
ACHN renal = tested on: ACHN renal
BT-549 breast = tested on: BT-549 breast
CAKI-1 renal = tested on: CAKI-1 renal
CCRF-CEM leukemia = tested on: CCRF-CEM leukemia
COLO 205 colon = tested on: COLO 205 colon
DU-145 prostate = tested on: DU-145 prostate
EKVX NSCLC = tested on: EKVX NSCLC
HCC-2998 colon = tested on: HCC-2998 colon
HCT-116 colon = tested on: HCT-116 colon
HCT-15 colon = tested on: HCT-15 colon
HL-60(TB) leukemia = tested on: HL-60(TB) leukemia
HOP-62 NSCLC = tested on: HOP-62 NSCLC
HOP-92 NSCLC = tested on: HOP-92 NSCLC
HS 578T breast = tested on: HS 578T breast
HT29 colon = tested on: HT29 colon
IGROV1 ovarian = tested on: IGROV1 ovarian
K-562 leukemia = tested on: K-562 leukemia
KM12 colon = tested on: KM12 colon
LOX IMVI melanoma = tested on: LOX IMVI melanoma
M14 melanoma = tested on: M14 melanoma
MALME-3M melanoma = tested on: MALME-3M melanoma
MCF7 breast = tested on: MCF7 breast
MDA-MB-435 = tested on: MDA-MB-435
MDA-MB-468 breast = tested on: MDA-MB-468 breast
MOLT-4 leukemia = tested on: MOLT-4 leukemia
NCI-H23 lung = tested on: NCI-H23 lung
NCI-H460 lung = tested on: NCI-H460 lung
NCI-H522 lung = tested on: NCI-H522 lung
NCI/ADR-RES ovarian = tested on: NCI/ADR-RES ovarian
OVCAR-3 ovarian = tested on: OVCAR-3 ovarian
OVCAR-4 ovarian = tested on: OVCAR-4 ovarian
OVCAR-5 ovarian = tested on: OVCAR-5 ovarian
OVCAR-8 ovarian = tested on: OVCAR-8 ovarian
RPMI-8226 leukemia = tested on: RPMI-8226 leukemia
RXF 393 renal = tested on: RXF 393 renal
SF-268 CNS = tested on: SF-268 CNS
SF-539 CNS = tested on: SF-539 CNS
SK-MEL-28 melanoma = tested on: SK-MEL-28 melanoma
SK-MEL-5 melanoma = tested on: SK-MEL-5 melanoma
SK-OV-3 ovarian = tested on: SK-OV-3 ovarian
SN12C renal = tested on: SN12C renal
SNB-19 CNS = tested on: SNB-19 CNS
SR leukemia = tested on: SR leukemia
SW-620 colon = tested on: SW-620 colon
T-47D breast = tested on: T-47D breast
TK-10 renal = tested on: TK-10 renal
UACC-257 melanoma = tested on: UACC-257 melanoma
UACC-62 melanoma = tested on: UACC-62 melanoma

SMILES: COc1cc2cc(C(=O)N3C[C@@H](CCl)c4c3cc(OC(=O)N3CCN(C)[C@@H]5CSSC[C@H]53)c3ccccc43)[nH]c2c(OC)c1OC
- GI50 (786-0 renal): 16.3 nM
- TGI (786-0 renal): 69.3 nM
- GI50 (ACHN renal): < 7.85 nM
- TGI (ACHN renal): 29.3 nM
- GI50 (BT-549 breast): 15.4 nM
- TGI (BT-549 breast): 55.9 nM
- GI50 (CAKI-1 renal): 27.3 nM
- TGI (CAKI-1 renal): 586 nM
- GI50 (CCRF-CEM leukemia): 26.3 nM
- TGI (CCRF-CEM leukemia): 2000 nM
- GI50 (COLO 205 colon): 49.2 nM
- TGI (COLO 205 colon): 176 nM
- GI50 (DU-145 prostate): < 7.85 nM
- TGI (DU-145 prostate): 9010 nM
- GI50 (EKVX NSCLC): 18.2 nM
- TGI (EKVX NSCLC): 133 nM
- GI50 (HCC-2998 colon): 15.4 nM
- TGI (HCC-2998 colon): 37.8 nM
- GI50 (HCT-116 colon): 18.1 nM
- TGI (HCT-116 colon): 8510 nM
- GI50 (HCT-15 colon): 21.8 nM
- TGI (HCT-15 colon): 554 nM
- GI50 (HL-60(TB) leukemia): < 7.85 nM
- TGI (HL-60(TB) leukemia): 110 nM
- GI50 (HOP-62 NSCLC): 12.3 nM
- TGI (HOP-62 NSCLC): 65.4 nM
- GI50 (HOP-92 NSCLC): 26.7 nM
- TGI (HOP-92 NSCLC): 824 nM
- GI50 (HS 578T breast): 159 nM
- TGI (HS 578T breast): 668 nM
- GI50 (HT29 colon): 34.1 nM
- TGI (HT29 colon): 876 nM
- GI50 (IGROV1 ovarian): 58.4 nM
- TGI (IGROV1 ovarian): 266 nM
- GI50 (K-562 leukemia): 24.6 nM
- TGI (K-562 leukemia): 78500 nM
- GI50 (KM12 colon): 43.7 nM
- TGI (KM12 colon): 3640 nM
- GI50 (LOX IMVI melanoma): 12.2 nM
- TGI (LOX IMVI melanoma): 43.5 nM
- GI50 (M14 melanoma): 10.5 nM
- TGI (M14 melanoma): 26.2 nM
- GI50 (MALME-3M melanoma): 13.7 nM
- TGI (MALME-3M melanoma): 33.3 nM
- GI50 (MCF7 breast): < 7.85 nM
- TGI (MCF7 breast): 178 nM
- GI50 (MDA-MB-435): 27.4 nM
- TGI (MDA-MB-435): 138 nM
- GI50 (MDA-MB-468 breast): 11.5 nM
- TGI (MDA-MB-468 breast): 30.8 nM
- GI50 (MOLT-4 leukemia): < 7.85 nM
- TGI (MOLT-4 leukemia): 215 nM
- GI50 (NCI-H23 lung): < 7.85 nM
- TGI (NCI-H23 lung): 13.8 nM
- GI50 (NCI-H460 lung): < 7.85 nM
- TGI (NCI-H460 lung): 791 nM
- GI50 (NCI-H522 lung): 12.4 nM
- TGI (NCI-H522 lung): 48 nM
- GI50 (NCI/ADR-RES ovarian): 11.1 nM
- TGI (NCI/ADR-RES ovarian): 52.8 nM
- GI50 (OVCAR-3 ovarian): 52.7 nM
- TGI (OVCAR-3 ovarian): 578 nM
- GI50 (OVCAR-4 ovarian): 160 nM
- TGI (OVCAR-4 ovarian): 799 nM
- GI50 (OVCAR-5 ovarian): 36.3 nM
- TGI (OVCAR-5 ovarian): 380 nM
- GI50 (OVCAR-8 ovarian): 8.62 nM
- TGI (OVCAR-8 ovarian): 68 nM
- GI50 (RPMI-8226 leukemia): 33.9 nM
- TGI (RPMI-8226 leukemia): 458 nM
- GI50 (RXF 393 renal): 9.53 nM
- TGI (RXF 393 renal): 20.1 nM
- GI50 (SF-268 CNS): 14.8 nM
- TGI (SF-268 CNS): 1350 nM
- GI50 (SF-539 CNS): 9.97 nM
- TGI (SF-539 CNS): 29.3 nM
- GI50 (SK-MEL-28 melanoma): 14.5 nM
- TGI (SK-MEL-28 melanoma): 31 nM
- GI50 (SK-MEL-5 melanoma): 13.2 nM
- TGI (SK-MEL-5 melanoma): 24.2 nM
- GI50 (SK-OV-3 ovarian): 12.4 nM
- TGI (SK-OV-3 ovarian): 44.3 nM
- GI50 (SN12C renal): 17.1 nM
- TGI (SN12C renal): 831 nM
- GI50 (SNB-19 CNS): 16.4 nM
- TGI (SNB-19 CNS): 1090 nM
- GI50 (SR leukemia): < 7.85 nM
- TGI (SR leukemia): 61.3 nM
- GI50 (SW-620 colon): 58.1 nM
- TGI (SW-620 colon): 78500 nM
- GI50 (T-47D breast): 50.2 nM
- TGI (T-47D breast): 553 nM
- GI50 (TK-10 renal): 127 nM
- TGI (TK-10 renal): 2400 nM
- GI50 (UACC-257 melanoma): 23.9 nM
- TGI (UACC-257 melanoma): 78.4 nM
- GI50 (UACC-62 melanoma): 15.1 nM
- TGI (UACC-62 melanoma): 87.9 nM

— PubChem BioAssay (NCI)
